US10865417B2, “Yeast synthetic biology platform for identifying shikimate pathway enzyme inhibitors” (New York University, priority 2018, dated 2020)

Key:
[1] = target: T1, step 2 (DHQS) of Neisseria gonorrhoeae (Neisseria gonorrhoeae, UniProt Q5FAD4); assay: N−1 assay for molecular target of glyphosate, [Sau HGC] lacking step 2; type: cell-based; settings: aro1Δ [Ngo] yeast with [Sau HGC] lacking step 2, −AAA, 0.25% glyphosate
T1 construct: expressed in transfected cells; host or cells: Saccharomyces cerevisiae aro1Δ, co-transformed with [Sau HGC] lacking step 2
Excerpt: (§1) FIG. 6. Molecular target identification of the shikimate pathway inhibitor glyphosate in the yeast avatar system. Yeast cells lacking ARO1 (aro1Δ) carrying the Neisseria gonorrhoeae pathway ([Ngo]) or an empty vector (empty) were co-transformed with a full-length Staphylococcus aureus pathways ([Sau HGC]), one of five derivatives of [Sau HGC] lacking a single enzymatic activity (step 2, step 3, step 4, step 5, step 6), or an empty vector (empty) lacking all shikimate pathway enzymatic activities. Cells were plated on replete medium including aromatic amino acids (+AAA) or selective medium lacking aromatic amino acids (−AAA). 0.25% glyphosate (vol/vol of a commercially available 41% solution of glyphosate) was added to the plates where indicated. Cell growth indicates complementation and absence of cell growth indicates no complementation.
(§2) As discussed above, five steps of the endogenous shikimate pathway are provided by a single gene, ARO1, which encodes a penta-functional protein (FIG. 1, 2). […] To distinguish between these possibilities and determine whether any of the heterologous enzymatic activities are functional in yeast, the “N−1” assay can be used. […] Each of the five strains can then be evaluated for complementation on medium lacking aromatic amino acids. […]

[2] = tested on: yeast avatars expressing heterologous shikimate pathways (EPSPS enzyme); assay: Yeast avatar glyphosate sensitivity assay (panel of avatars); type: cell-based, Saccharomyces cerevisiae
[3] = tested on: step 6 (EPSPS) of Neisseria gonorrhoeae; assay: N−1 assay for molecular target of glyphosate, [Sau HGC] lacking step 6; type: cell-based, yeast (aro1Δ) carrying Neisseria gonorrhoeae pathway; settings: aro1Δ [Ngo] yeast with [Sau HGC] lacking step 6, −AAA, 0.25% glyphosate
Excerpt: as §1, §2

[4] = tested on: Staphylococcus aureus pathway; assay: Yeast avatar glyphosate sensitivity assay, Staphylococcus aureus pathway; type: cell-based; settings: aro1Δ yeast carrying Staphylococcus aureus pathway, 0.25% glyphosate, FIG. 3
[5] = tested on: Neisseria gonorrhoeae pathway; assay: Yeast avatar glyphosate sensitivity assay, Neisseria gonorrhoeae pathway; type: cell-based; settings: aro1Δ yeast carrying Neisseria gonorrhoeae pathway, 0.25% glyphosate, FIG. 3
[6] = target: step 2 of the pathway, DHQS (Escherichia coli, UniProt P07639); settings: reference (25); cited from earlier work
Sequence of step 2 of the pathway, DHQS (P07639 whole entry): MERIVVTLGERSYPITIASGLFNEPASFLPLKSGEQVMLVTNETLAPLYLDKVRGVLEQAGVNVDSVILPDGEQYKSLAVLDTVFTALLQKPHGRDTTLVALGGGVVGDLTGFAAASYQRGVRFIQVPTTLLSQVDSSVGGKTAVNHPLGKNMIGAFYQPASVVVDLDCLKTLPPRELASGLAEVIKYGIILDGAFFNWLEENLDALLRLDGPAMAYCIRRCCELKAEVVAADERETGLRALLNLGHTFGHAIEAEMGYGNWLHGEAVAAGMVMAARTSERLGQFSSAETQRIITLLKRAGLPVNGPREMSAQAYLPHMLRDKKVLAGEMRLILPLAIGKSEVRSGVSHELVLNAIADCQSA

T1 sequence (Q5FAD4 whole entry): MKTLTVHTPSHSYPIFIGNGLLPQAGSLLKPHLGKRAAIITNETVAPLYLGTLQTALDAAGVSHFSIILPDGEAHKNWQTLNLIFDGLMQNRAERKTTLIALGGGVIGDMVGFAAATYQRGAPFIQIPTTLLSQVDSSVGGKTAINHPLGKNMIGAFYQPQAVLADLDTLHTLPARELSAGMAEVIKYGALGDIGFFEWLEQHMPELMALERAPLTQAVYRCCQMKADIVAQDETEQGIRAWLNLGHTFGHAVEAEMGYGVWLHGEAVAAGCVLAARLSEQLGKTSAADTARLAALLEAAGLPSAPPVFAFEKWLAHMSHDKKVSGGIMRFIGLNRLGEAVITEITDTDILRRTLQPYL

In the case of `O=C(O)CNCP(=O)(O)O` [glyphosate], the cell growth [1] was “completely inhibited”, the “sensitivity of enzymatic activity to glyphosate” value [1] was “sensitive” and the “ability of yeast avatars to grow on glyphosate” value ([2]; 0.25% glyphosate (vol/vol of 41% solution), medium lacking aromatic amino acids, 6 days at 30° C., a number of avatars) was “sensitive”. The “glyphosate sensitivity upon supplementation of aromatic amino acids” value ([2]; 0.25% glyphosate, plus tryptophan, phenylalanine and tyrosine) was “glyphosate sensitivity was overcome”, the cell growth [3] was “completely inhibited” and the “sensitivity of enzymatic activity to glyphosate” value [3] was “sensitive”. The “growth of avatar on glyphosate (sensitivity/resistance)” value [4] was “resistant”, the “growth of avatar on glyphosate (sensitivity/resistance)” value [5] was “demonstrated sensitivity” and the “inhibition of DHQS” value [6] was “inhibits”.
